The experiment deals with Schwanniomyces castellii strain ATCC 26077. The experiment can be described thus: Mutagenic treatment, mutants resistant to 2-deoxy-glucose on potato starch agar. It counts as cell-based, Schwanniomyces castelli. Conditions: EMS treatment. As for the experimental part: The present invention also relates to the production of a novel strain of Schwanniomyces castellii. The mutant strain Schwanniomyces castellii NCYC 1461 was produced by treating a known strain, Schwanniomyces castellii ATCC 26077 with known mutagenic agents. The survivors were cultured on potato starch agar in the presence of concentrations of deoxyglucose at least as high as 10-^3 molar. […] Accordingly, the selection of the mutant strain is particularly desirable in the production of the above-mentioned culture filtrate having amylolytic enzyme activity. By means of such a selection there is a large proportionate increase in the relative amount of alpha-amylase present in the clarified culture filtrate. This novel strain of Schwanniomyces castellii is available upon request from the Yeast Collection of the National Collection of Yeast Cultures Depository ("NCYC"), Food Research Institute, Norwich, Norfolk, England. The ascession number of that organism in the above-mentioned repository is NCYC 1461. Schwanniomyces castellii strain NCYC 1461 is one of a number of mutant strains of Schwanniomyces castellii that .were produced by way of the above-outlined mutagenic treatment of Schwanniomyces castellii strain ATCC 26077. The particulars of the mutagenic treatments are detailed below in Table III which indicates the time of exposure, the percent survival rate, and the frequency of mutation for both of the treatments employed.

As for `CCOS(C)(=O)=O` [EMS], under “time of exposure 30 min”, the “% Survival” value came out at 66% and the Frequency of mutation was 10^-3. In addition, for the setting “time of exposure 60 min”, the “% Survival” value was 14% and the Frequency of mutation is given as 2×10^-4.

For the origin of these results see patent EP0125615B1, “Schwanniomyces castellii strains and brewing process” (LABATT BREWING COMPANY LIMITED, priority 1983, dated 1984).
